From patent publication US7485653B2, “1,4-dihydropyridine compounds, pharmaceutical compositions, and methods for the treatment of cardiovascular disease” (Gilead Sciences, Inc., priority 2003, dated 2009)

Tests used:
α-MyHC protein levels = assay: Western blotting of α-MyHC protein in NRVM; assay type: cell-based, rat; conditions: NRVM stimulated 3 days; Compound 1 10 nM to 10 μM
Procedure: FIG. 2 Effect of Compound 1 on α-MyHC protein levels as detected by Western blotting. NRVM are stimulated with Compound 1 at different concentrations for 3 days. Protein extracts are prepared, proteins are separated by SDS-PAGE electrophoresis, transferred to PVDF membrane, and detected with an anti-α-MyHC monoclonal antibody.
As an independent measure of changes in α-MyHC protein levels, NRVM stimulated with Compound 1 were analyzed for α-MyHC protein levels by Western blotting. Protein extracts prepared from NRVM stimulated with a range of concentrations of Compound 1 from 10 nM to 10 μM were separated by SDS-PAGE and transferred to PVDF membrane. Levels of α-MyHC protein were detected by Western blotting using the same anti-α-MyHC monoclonal antibody used in the cytoblot assay. […] This experiment verified that the changes in α-MyHC protein detected in the cytoblot assay were also evident by Western blotting.

[1] = test system: Hypertrophy of NRVM (secretion of atrial natriuretic factor); assay: Anti-hypertrophic activity in NRVM, ANF ELISA (ANF secretion); assay type: cell-based; conditions: Rattus norvegicus, read-out: IC50 of the ANF ELISA (antihypertrophic activity)
Procedure: Anti-hypertrophic Activity of Racemic Compound 1 and the Purified Enantiomers of Compound 1. Neonatal rat ventricular myocytes (NRVM) were isolated from 1 to 3 day-old Sprague-Dawley rats using enzymatic digestion and myocyte enrichment techniques. NRVM were cultured in serum-containing media for 18 hours. For the continuation of culture, serum-free media was used. Hypertrophy of NRVM was induced using pharmacological stimuli, including phenylephrine, endothelin-1, and […]. Hypertrophic responses were determined using methods including the following: measurement of total cellular protein; secretion of atrial natriuretic factor; determination of cell volume; determination of the expression of so-called fetal genes such as atrial natriuretic factor, beta-myosin heavy chain and alpha-skeletal actin. ANF secretion was the most sensitive assay for measuring hypertrophy, and the IC50 of the ANF ELISA was the measurement used to determine antihypertrophic activity.

[2] = test system: α-myosin heavy chain (α-MyHC) protein levels; assay: α-MyHC cytoblot assay in neonatal rat ventricular myocytes (NRVM); assay type: cell-based
Procedure: FIG. 1 Concentration-dependent effect of Compound 1 on αMyHC protein levels in the cytoblot assay. NRVM are cultured for 3 days in serum-free medium in the presence of differing amounts of Compound 1. At the end of the culture period, NRVM are fixed and analyzed for α-MyHC protein levels using the BA-G5 monoclonal antibody specific for α-MyHC. Results are collected as RLU using a Packard Fusion Plate reader, and normalized to the signal from samples cultured in the absence of compound (control, set to 100%).
Preparation and culture of neonatal rat ventricular myocytes (NRVM) was performed by removing hearts from 1-3 day old rat neonatal pups, along with the atria and lungs. The ventricles were cut into smaller pieces and digested 3 times with collagenase for 20-30 min at 37° C. The myocytes were then separated from other cell types using a Percoll gradient. The myocyte layer was collected, washed 2 times, and plated on tissue culture grade 10 cm Petri dishes for 1-2 hrs. The non-adherent cells (myocytes) were removed and plated in Costar clear view 96 well plates coated with 0.2% gelatin for at least 2 hrs. The gelatin solution was removed, and the myocytes were resuspended in DMEM high glucose media (Mediatech) containing 10% charcoal/dextran treated FBS (Hyclone) and 1% Penicillin-Streptomycin-Glutamine (PSG, Gibco). Ten thousand NRVM were plated per well in a 100 μl volume, and incubated overnight at 37° C. in 5% CO2 in air. The following day, the media was replaced with 100 μl of serum-free DMEM high glucose medium supplemented with PSG and 0.3% Nutridoma-SP (Roche).
Compounds were reconstituted in DMSO at 30 mM, and aliquots were stored at −20° C. A 1:1000 dilution was prepared in serum-free DMEM medium supplemented with PSG and 0.3% Nutridoma, and sonicated for 5 min at room temperature. After sonication, additional 3 fold dilutions were prepared in the same medium. Diluted compound was then added to the NRVM cultures in a volume of 100 μl. […]
For the α-MyHC cytoblot assay, NRVM cultures were analyzed for α-MyHC protein levels after 3 days of incubation. […] Excess antibody was removed with 3 PBS washes, and a chemiluminescent substrate was added (Pierce SuperSignal West Pico Chemiluminscent Substrate) for 5 min before quantitation on a Packard Fusion Plate Reader.
As shown above in Table 1, Compound 1 increased α-MyHC protein levels as determined by an α-MyHC cytoblot assay. […] After 3 days of incubation with NRVM, α-MyHC protein levels were detected in the cytoblot assay and quantitated (FIG. 1). […] An increase in α-MyHC protein levels was first detected beginning at 30 nM, with a maximal response observed at 3 μM. […]

SMILES: CC(=O)C1=C(C)NC(SCC(=O)c2cccc([N+](=O)[O-])c2)=C(C#N)C1c1ccccc1Cl (racemic) [Compound 1]
- α-MyHC protein levels by Western blotting (α-MyHC protein levels): increasing amounts of α-MyHC protein were observed with increasing amounts of Compound 1
- IC50 [1]: 427 nM
- % increase of a-MyHC over baseline at 10 mM Cpd ([2]; 3 days incubation): 206%
- concentration at which an increase in α-MyHC protein levels was first detected ([2]; 3 days, tested 3 nM to 30 μM): 30 nM
- concentration of maximal response (α-MyHC protein levels) ([2]; 3 days, tested 3 nM to 30 μM): 3 µM
- EC50 ([2]; Rattus norvegicus, Ventricular myocyte, 72 h, 3 days, average of six independent experiments, read-out: concentration that gave a half-maximal response (α-MyHC protein levels)): 60 nM
